# Assay results from ChEMBL document CHEMBL1156829 (Proc Natl Acad Sci U S A, 2008).
# Experiments:
# Plasmodium falciparum [1] = assay: NOVARTIS: Inhibition of Plasmodium falciparum 3D7 (drug-susceptible) proliferation in erythrocyte-based infection assay; format: functional, organism-based; conditions: Plasmodium falciparum, 3D7
# Plasmodium falciparum [2] = assay: NOVARTIS: Inhibition of Plasmodium falciparum W2 (drug-resistant) proliferation in erythrocyte-based infection assay; format: functional, organism-based; conditions: Plasmodium falciparum, W2; read-out: EC50
# [3] = NOVARTIS: Cytotoxicity against human hepatocellular carcinoma cell line (Huh7); format: toxicity, cell-based, Huh-7; conditions: Huh7 cells (hepatocellular carcinoma cell line)
SMILES,EC50 (Plasmodium falciparum [1]) [nM],EC50 (Plasmodium falciparum [2]) [nM],CC50 [3] [nM]
CCN(CC)CCNc1ccnc2cc3ccccc3cc12,28.6,31.3,20300
CN1CCN(c2nc(Nc3ccc(O)cc3)nc3ccccc23)CC1,626,443,41800
CS(=O)(=O)N(CCc1ccccc1)CC(O)CN1CCC(CNC(=O)NC(c2ccccc2)c2ccccc2)CC1 (centres undefined),> 1530,1020,> 10000
CC(C)(C)NC(=S)NN=CC=NNC(=S)NC(C)(C)C,210,56.9,> 100000
CCCCc1ccc(C(=O)N(C)CCCNc2ccnc3cc(Cl)ccc23)cc1,427,41.6,> 10000
COc1cccc(-c2cc(C(=O)Nc3cc(Cl)ccc3O)on2)c1,906,65,> 100000
CN(C)CCCNCc1cc(-c2cccnc2)ccc1O,241,514,> 10000
CCOC(=O)c1cnn(-c2ccnc3cc(Cl)ccc23)c1CNC(C)c1cccs1 (centres undefined),> 1560,> 944,> 10000
CCOC(=O)c1ccc(OCC2c3cc(OC)c(OC)cc3CCN2C(=O)Nc2ccc(Cl)cc2)cc1 (centres undefined),1970,292,> 100000
Cc1nc2ccccc2c(=O)n1-c1ccc([N+](=O)[O-])cc1,765,896,> 10000
CC(C)N1CCc2c(sc(NC(=O)C(C)(C)C)c2C(N)=O)C1,1040,6260,71200
CCCCCCCc1cc(O)c2c3c(c(=O)oc2c1)CCC(C)C3 (centres undefined),1210,1720,> 100000
COc1ccc2c(c1)C(C)=CC(C)(C)N2C(=O)CSc1nnc(-c2ccc(C)cc2)o1,467,> 1250,> 10000
C=C[C@H]1CN2CC[C@H]1C[C@@H]2[C@@H](OC(=O)Cc1ccccc1)c1ccnc2ccccc12,49.4,51.7,> 10000
CCC(c1nc2ccccc2c(=O)n1-c1cccc(Cl)c1)N(CCC(C)C)C(=O)COCc1ccccc1 (centres undefined),1190,> 1140,3910
CCCC[C@@H](C)C(O)[C@H]1C(=O)N[C@@H](CC)C(=O)N(C)CC(=O)N(C)[C@@H](CC(C)C)C(=O)N[C@@H](C(C)C)C(=O)N(C)[C@@H](CC(C)C)C(=O)N[C@@H](C)C(=O)N[C@H](C)C(=O)N(C)[C@@H](CC(C)C)C(=O)N(C)[C@@H](CC(C)C)C(=O)N(C)[C@@H](C(C)C)C(=O)N1C (some centres undefined),859,251,> 10000
COc1ccc(C(=O)NC(c2ccc(C)cc2)c2cc(Cl)c3cccnc3c2O)cc1 (centres undefined),2420,2700,> 100000

SMILES,EC50 (Plasmodium falciparum [1]) [nM],EC50 (Plasmodium falciparum [2]) [nM],CC50 [3] [nM]
Cn1cnc2cc(OC3CCN(Cc4ccco4)CC3)ccc21,216,192,> 4340
CC12CN(Cc3ccccc3)CC(C)(CN(Cc3cccc(Br)c3)C1)C2,3620,819,47200
COc1cccc(C2(NC(=O)CCn3ccnc3-c3ccccc3)CCCC2)c1,> 1250,1780,> 10000
CN(Cc1ccccc1)c1cc(-c2ccccn2)nc(-c2ccccn2)n1,531,514,> 10000
COc1ccc(NC(=O)c2cc3cc(C4(O)CCN(CC5CC=CCC5)CC4)ccc3o2)cc1 (centres undefined),381,824,25100
CN(C)CC(C)(C)CNCc1cc(-c2ccnc3cc(Cl)ccc23)ccc1O,880,660,> 10000
O=C1N(Cc2cc3ccccc3s2)CC2CN(Cc3ccoc3)CCN12 (centres undefined),1080,619,> 10000
O=C(COc1ccccc1)Nc1nccs1,> 1250,1260,> 10000
O=[N+]([O-])c1ccc(Cl)c(-c2ccc(C=NNc3nc4ccccc4[nH]3)o2)c1,946,801,> 10000
COc1ccc(-c2nc(-c3ccncc3)cnc2N)cc1OC,35.8,45.7,> 10000
CCCCN(CC)CCNC(=O)C1c2ccccc2C(=O)N(Cc2ccc(F)cc2)C1c1ccc(OC)cc1 (centres undefined),2270,195,> 100000
O=C(NCC1CCCO1)c1ccc([N+](=O)[O-])cc1Cl (centres undefined),> 1120,> 877,> 10000
O=C(NNc1ccccc1F)c1c(F)cccc1Cl,> 1250,< 31.6,> 10000
CCOC(=O)c1c(C)[nH]c2c1cc(O)c1ccccc12,98.6,126,> 10000
COc1ccc(-c2csc3ncnc(Cl)c23)cc1OC,2320,723,> 100000
COc1cccc(-c2cc(N=C(NCc3ccco3)SC)n[nH]2)c1,> 11300,2870,70400
